Results published in ChEMBL document CHEMBL1795228, “Air to lung partition coefficients for volatile organic compounds and blood to lung partition coefficients for volatile organic compounds and drugs” (Eur J Med Chem, 2008).

What was measured:
[1] = In-vivo plasma to lung partition coefficients of the compound, logP(lung) in rat; assay type: ADME, cell-free
[2] = In-vitro blood to lung partition coefficients of the compound, logP(lung) (human/rat)
[3] = In-vitro air to lung partition coefficients of the compound, logK(lung) (human/rat); settings: octanol/water
[4] = In-vitro air to blood partition coefficients of the compound, logK(blood) (human/rat); settings: octanol/water

| Compound | logP(lung) [1] | logP(lung) [2] | logK(lung) [3] | logK(blood) [4] |
| --- | --- | --- | --- | --- |
| O=C(O)c1ccc(-c2ccccc2)cc1 | -0.55 | – | – | – |
| C=C | – | 0.28 | -0.25 | -0.53 |
| FC(F)OC(F)(F)C(F)Cl (stereo unspecified) | – | 0.21 | 0.56 | 0.35 |
| FC(F)(F)CCl | – | 0.2 | 0.34 | 0.14 |
| CCC(C)(C)C | – | 0.37 | -0.22 | -0.59 |
| FC(F)(F)c1ccc(Cl)cc1 | – | 0.2 | 1.63 | 1.43 |
| CCC1(C)C(=O)NC(=O)NC1=O | -0.21 | – | – | – |
| CCCC1(CC)C(=O)NC(=O)NC1=O | 0.16 | – | – | – |
| CCCCCCC1(CC)C(=O)NC(=O)NC1=O | 0.08 | – | – | – |
| CCCCCCCC1(CC)C(=O)NC(=O)NC1=O | 0.12 | – | – | – |
| CCCCCCCCC1(CC)C(=O)NC(=O)NC1=O | 0.49 | – | – | – |
| Nc1cc(Cl)c(S(N)(=O)=O)cc1-c1nnn[nH]1 | 0.6 | – | – | – |
| CCCC(C)C | – | 0.29 | -0.1 | -0.39 |
| CCC(C)CC | – | 0.32 | -0.05 | -0.37 |
| CCCCCC1(CC)C(=O)NC(=O)NC1=O | 0.22 | – | – | – |
| CC(C)=CCN1CC[C@]2(C)c3cc(O)ccc3C[C@H]1[C@H]2C [(+)-PENTAZOCINE] | 1.43 | – | – | – |
| CC(C)=O [ACETONE] | – | -0.16 | 2.2 | 2.36 |
| CCC1(CC)C(=O)NC(=O)NC1=O [BARBITAL] | 0 | – | – | – |
| c1ccccc1 [BENZENE] | – | – | 1.08 | 1.05 |
| CC(C)NCC(O)COc1ccc(CCOCC2CC2)cc1 (stereo unspecified) [BETAXOLOL] | 2.29 | – | – | – |
| OC(CCN1CCCCC1)(c1ccccc1)C1CC2C=CC1C2 (stereo unspecified) [BIPERIDEN] | 1.79 | – | – | – |
| CC(C)NCC(O)COc1ccc(COCCOC(C)C)cc1 (stereo unspecified) [BISOPROLOL] | 1.62 | – | – | – |
| CCCC1O[C@@H]2C[C@H]3[C@@H]4CCC5=CC(=O)C=C[C@]5(C)[C@H]4[C@@H](O)C[C@]3(C)[C@]2(C(=O)CO)O1 (stereo partly specified) [BUDESONIDE] | 0.94 | – | – | – |
| C=CC=C [BUTADIENE] | – | -0.41 | -0.32 | 0.09 |
| CCC(C)=O [BUTANONE] | – | -0.23 | 2.01 | 2.24 |
| CCCCC1(CC)C(=O)NC(=O)NC1=O [BUTETHAL] | 0.18 | – | – | – |

| Compound | logP(lung) [1] | logP(lung) [2] | logK(lung) [3] | logK(blood) [4] |
| --- | --- | --- | --- | --- |
| [C-]#[O+] [CARBON MONOXIDE] | – | -0.02 | -1.69 | -1.67 |
| Cc1nnc(SCC2=C(C(=O)O)N3C(=O)[C@@H](NC(=O)Cn4cnnn4)[C@H]3SC2)s1 [CEFAZOLIN] | -0.78 | – | – | – |
| ClC(Cl)Cl [CHLOROFORM] | – | -0.03 | 1.12 | 1.15 |
| C=CC(=C)Cl [CHLOROPRENE] | – | – | 1.12 | – |
| COC(=O)[C@H]1[C@@H](OC(=O)c2ccccc2)C[C@@H]2CC[C@H]1N2C [COCAINE] | 1.06 | – | – | – |
| CN1C(=O)CC[C@H]1c1cccnc1 [COTININE] | -0.18 | – | – | – |
| C1CCCCC1 [CYCLOHEXANE] | – | 0.26 | 0.43 | 0.17 |
| C1CC1 [CYCLOPROPANE] | – | -0.3 | -0.51 | -0.21 |
| Cc1onc(-c2c(Cl)cccc2Cl)c1C(=O)N[C@@H]1C(=O)N2[C@@H]1SC(C)(C)[C@@H]2C(=O)O [DICLOXACILLIN] | -0.92 | – | – | – |
| COc1cccc2c1C(=O)c1c(O)c3c(c(O)c1C2=O)C[C@@](O)(C(=O)CO)C[C@@H]3O[C@H]1C[C@H](N)[C@H](O)[C@H](C)O1 [DOXORUBICIN] | 0.53 | – | – | – |
| CC1(C)[C@@H](O)CC[C@]2(C)[C@H]3C(=O)C=C4[C@@H]5C[C@@](C)(C(=O)O)CC[C@]5(C)CC[C@@]4(C)[C@]3(C)CC[C@@H]12 [ENOXOLONE] | -0.66 | – | – | – |
| CC [ETHANE] | – | -0.26 | -1.28 | -1.02 |
| CCOc1ccccc1C(N)=O [ETHENZAMIDE] | -0.03 | – | – | – |
| CCOCC [ETHER] | – | 0.03 | 1.14 | 1.11 |
| C#C [ETHYNE] | – | 0 | -0.06 | -0.06 |
| FC(F)(F)C(Cl)Br (stereo unspecified) [HALOTHANE] | – | -0.11 | 0.46 | 0.57 |
| [He] [HELIUM] | – | 0.02 | -1.98 | -2 |
| CCCCCCC [HEPTANE] | – | -0.1 | 0.4 | 0.5 |
| CCCCCC [HEXANE] | – | -0.21 | 0 | 0.21 |
| CN1C(=O)NC(=O)C(C)(C2=CCCCC2)C1=O (stereo unspecified) [HEXOBARBITAL] | 0.45 | – | – | – |
| CCc1ccc(C(=O)C(C)CN2CCCC2)cc1 (stereo unspecified) [INAPERISONE] | 1.52 | – | – | – |
| CC(C)CO [ISOBUTANOL] | – | -0.32 | 2.6 | 2.92 |
| FC(F)OC(Cl)C(F)(F)F (stereo unspecified) [ISOFLURANE] | – | 0 | 0.2 | 0.2 |
| O=C1Nc2ccc(Cl)cc2C(c2ccccc2Cl)=NC1O (stereo unspecified) [LORAZEPAM] | 0.44 | – | – | – |
| COC(F)(F)C(Cl)Cl [METHOXYFLURANE] | – | -0.08 | 1.2 | 1.28 |
| CO [METHYL ALCOHOL] | – | -0.17 | 3.24 | 3.41 |

| Compound | logP(lung) [1] | logP(lung) [2] | logK(lung) [3] | logK(blood) [4] |
| --- | --- | --- | --- | --- |
| CC1CCCC1 [METHYLCYCLOPENTANE] | – | 0.3 | 0.23 | -0.07 |
| ClCCl [METHYLENE CHLORIDE] | – | -0.36 | 0.76 | 1.12 |
| COC(=O)C(c1ccccc1)C1CCCCN1 (stereo unspecified) [METHYLPHENIDATE] | 1.54 | – | – | – |
| COn1cc(C(=O)O)c(=O)c2cc3c(cc21)OCO3 [MILOXACIN] | -0.29 | – | – | – |
| CCn1cc(C(=O)O)c(=O)c2ccc(C)nc21 [NALIDIXIC ACID] | -0.48 | – | – | – |
| CN1CCC[C@H]1c1cccnc1 [NICOTINE] | 0.32 | – | – | – |
| [N-]=[N+]=O [NITROUS OXIDE] | – | 0 | -0.37 | -0.34 |
| Cc1ccccc1C [O-XYLENE] | – | 0.52 | 1.94 | 1.42 |
| CC1(C)S[C@@H]2[C@H](NC(=O)COc3ccccc3)C(=O)N2[C@H]1C(=O)O [PENICILLIN V] | -0.8 | – | – | – |
| c1ccc(C2(N3CCCCC3)CCCCC2)cc1 [PHENCYCLIDINE] | 1.61 | – | – | – |
| CCC1(c2ccccc2)C(=O)NC(=O)NC1=O [PHENOBARBITAL] | -0.08 | – | – | – |
| O=C1NC(=O)C(c2ccccc2)(c2ccccc2)N1 [PHENYTOIN] | -0.1 | – | – | – |
| CC(C)NCC(O)COc1cccc2[nH]ccc12 (stereo unspecified) [PINDOLOL] | 1.01 | – | – | – |
| c1cc2ccc3cccc4ccc(c1)c2c34 [PYRENE] | 0.35 | – | – | – |
| Cc1nc(Nc2ccc(F)cc2)nc(N2CCc3ccccc3C2C)c1C.Cl (stereo unspecified) [REVAPRAZAN HYDROCHLORIDE] | 1.34 | – | – | – |
| O=C(O)c1ccccc1O [SALICYLIC ACID] | -0.72 | – | – | – |
| O=c1[nH]c(=O)n(C2CCCO2)cc1F (stereo unspecified) [TEGAFUR] | -0.59 | – | – | – |
| CN1C(C(=O)Nc2ccccn2)=C(O)c2sccc2S1(=O)=O [TENOXICAM] | -0.49 | – | – | – |
| CN(C/C=C/C#CC(C)(C)C)Cc1cccc2ccccc12 [TERBINAFINE] | 0.41 | – | – | – |
| Cn1c(=O)c2[nH]cnc2n(C)c1=O.O [THEOPHYLLINE] | -0.15 | – | – | – |
| CCCC(C)C1(CC)C(=O)NC(=S)NC1=O (stereo unspecified) [THIOPENTAL] | 0.08 | – | – | – |
| CSc1ccc2c(c1)N(CCC1CCCCN1C)c1ccccc1S2 (stereo unspecified) [THIORIDAZINE] | 1.13 | – | – | – |
| CC(C)(C)NC[C@H](O)COc1nsnc1N1CCOCC1 [TIMOLOL] | 1.43 | – | – | – |
| Cc1cccc(OCC(O)CNC(C)C)c1 (stereo unspecified) [TOLIPROLOL] | 0.89 | – | – | – |
| CCCC(CCC)C(=O)O [VALPROIC ACID] | -0.38 | – | – | – |
